Where two headings read alike, the source gives them in different places.
Assays:
Format in all cases: biochemical
recombinant human MMP-13 = recombinant human MMP-13 (Homo sapiens (Human), UniProt P45452); experiment: MMP selectivity assay, MMP-13; details: Table 2 selectivity profile; read-out: IC50, Target: MMP 13
Description: (§1) The inhibitory effect of compounds on the rate of cleaving fluorogenic MMP substrate (Enzo, BML-P128) by recombinant human MMP-12 catalytic domain (Enzo, BML-SE138) was carried out by methods known in the art. Briefly, to each well of a 96-well black opaque plate, all the reagents were sequentially added by pipetting, and the final reaction contained 4 nM of recombinant human MMP-12 catalytic domain, 4 μM of fluorogenic MMP substrate, and various concentrations (0.057 nM to 1,000 nM) of tested compound dilutions in HEPES buffer (pH 7.5) containing 10 mM of CaCl2, 0.01% Brij® 35 (polyoxyethylene (23) lauryl ether), and 0.1 mg/ml of BSA.
(§2) The enzyme and compounds were pre-incubated on a shaker to mix in wells. After an hour of mixing, fluorogenic substrate was added to each well. Reaction without enzyme was used as a blank control in the plate. The plate was then fed into a plate reader to measure fluorescence intensity at Excitation/Emission wavelengths of 340 nm/440 nm every 10 mins for at least 1 hour at 37° C. The IC50 of each compound in MMP-12 inhibition was determined by using a readout obtained at time point 30 minutes.
(§3) The MMP selectivity assay was performed by using other recombinant human MMPs, including MMP-1, MMP-2, MMP-3, MMP-7, MMP-8, MMP-9, MMP-10, MMP-12, MMP-13, and MMP-14. The IC50 of the compounds for the other recombinant human MMPs was determined as described above in Example 1, and are shown in Table 2. The IC50 values are reported as follows: A=less than 1 nM, B=1 nM to 10 nM, C=10 nM to 100 nM, D=greater than 100 nM.

recombinant human MMP-8 = recombinant human MMP-8 (Homo sapiens (Human), UniProt P22894); experiment: MMP selectivity assay, MMP-8; details: Table 2 selectivity profile; read-out: IC50, Target: MMP 8
Description: as §1, §2, §3

recombinant human MMP-10 = recombinant human MMP-10 (Homo sapiens (Human), UniProt P09238); experiment: MMP selectivity assay, MMP-10; details: Table 2 selectivity profile; read-out: IC50, Target: MMP 10
Description: as §1, §2, §3

[1] = target: recombinant human MMP-12 catalytic domain (Homo sapiens (Human), UniProt P39900); experiment: MMP-12 inhibitory assay, fluorogenic substrate cleavage
Description: as §1, §2

recombinant human MMP-7 = recombinant human MMP-7 (Homo sapiens (Human), UniProt P09237); experiment: MMP selectivity assay, MMP-7; details: Table 2 selectivity profile; read-out: IC50, Target: MMP 7
Description: as §1, §2, §3

recombinant human MMP-3 = recombinant human MMP-3 (Homo sapiens (Human), UniProt P08254); experiment: MMP selectivity assay, MMP-3; details: Table 2 selectivity profile; read-out: IC50, Target: MMP 3
Description: as §1, §2, §3

recombinant human MMP-1 = recombinant human MMP-1 (Homo sapiens (Human), UniProt P03956); experiment: MMP selectivity assay, MMP-1; details: Table 2 selectivity profile; read-out: IC50, Target: MMP 1
Description: as §1, §2, §3

recombinant human MMP-2 = recombinant human MMP-2 (Homo sapiens (Human), UniProt P08253); experiment: MMP selectivity assay, MMP-2; details: Table 2 selectivity profile; read-out: IC50, Target: MMP 2
Description: as §1, §2, §3

recombinant human MMP-9 = recombinant human MMP-9 (Homo sapiens (Human), UniProt P14780); experiment: MMP selectivity assay, MMP-9; details: Table 2 selectivity profile; read-out: IC50, Target: MMP 9
Description: as §1, §2, §3

recombinant human MMP-14 = recombinant human MMP-14 (Homo sapiens (Human), UniProt P50281); experiment: MMP selectivity assay, MMP-14; details: Table 2 selectivity profile; read-out: IC50, Target: MMP 14
Description: as §1, §2, §3

[2] = Table 1, readout at time point 30 minutes, read-out: MMP-12 IC50
[3] = Table 2 selectivity profile, read-out: IC50, Target: MMP 12

Chain of recombinant human MMP-8 (P22894 101-467): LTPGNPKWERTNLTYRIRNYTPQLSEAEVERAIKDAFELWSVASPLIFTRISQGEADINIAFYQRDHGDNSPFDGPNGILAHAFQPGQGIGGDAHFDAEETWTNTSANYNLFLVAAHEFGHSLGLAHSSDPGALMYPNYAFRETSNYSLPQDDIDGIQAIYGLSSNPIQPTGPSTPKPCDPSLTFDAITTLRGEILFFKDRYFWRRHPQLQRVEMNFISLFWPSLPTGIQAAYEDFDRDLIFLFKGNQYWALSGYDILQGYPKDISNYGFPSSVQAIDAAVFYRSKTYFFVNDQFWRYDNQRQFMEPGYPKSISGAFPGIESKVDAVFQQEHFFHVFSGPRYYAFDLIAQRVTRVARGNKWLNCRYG
Chain of recombinant human MMP-1 (P03956 100-469): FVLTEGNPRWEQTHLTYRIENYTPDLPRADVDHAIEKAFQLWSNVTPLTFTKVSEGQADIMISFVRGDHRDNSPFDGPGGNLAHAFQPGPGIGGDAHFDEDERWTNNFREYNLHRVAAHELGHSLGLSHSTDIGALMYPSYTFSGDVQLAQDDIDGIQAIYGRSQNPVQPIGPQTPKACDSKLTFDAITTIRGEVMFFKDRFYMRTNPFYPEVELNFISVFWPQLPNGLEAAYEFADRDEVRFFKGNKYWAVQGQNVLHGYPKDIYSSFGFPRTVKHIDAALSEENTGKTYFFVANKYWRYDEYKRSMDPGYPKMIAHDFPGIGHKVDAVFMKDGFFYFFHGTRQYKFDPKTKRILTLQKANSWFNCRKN
Chain of recombinant human MMP-3 (P08254 100-477): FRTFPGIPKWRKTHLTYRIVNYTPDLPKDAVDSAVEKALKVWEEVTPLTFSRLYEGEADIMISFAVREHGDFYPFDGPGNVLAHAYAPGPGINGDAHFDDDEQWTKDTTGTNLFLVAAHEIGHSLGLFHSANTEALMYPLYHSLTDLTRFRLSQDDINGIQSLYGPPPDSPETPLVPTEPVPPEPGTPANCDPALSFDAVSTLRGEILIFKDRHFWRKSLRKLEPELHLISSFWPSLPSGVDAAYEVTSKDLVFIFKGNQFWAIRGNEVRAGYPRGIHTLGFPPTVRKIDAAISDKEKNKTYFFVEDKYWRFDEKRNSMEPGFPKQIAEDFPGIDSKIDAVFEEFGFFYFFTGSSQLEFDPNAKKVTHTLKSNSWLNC
Chain of recombinant human MMP-10 (P09238 99-476): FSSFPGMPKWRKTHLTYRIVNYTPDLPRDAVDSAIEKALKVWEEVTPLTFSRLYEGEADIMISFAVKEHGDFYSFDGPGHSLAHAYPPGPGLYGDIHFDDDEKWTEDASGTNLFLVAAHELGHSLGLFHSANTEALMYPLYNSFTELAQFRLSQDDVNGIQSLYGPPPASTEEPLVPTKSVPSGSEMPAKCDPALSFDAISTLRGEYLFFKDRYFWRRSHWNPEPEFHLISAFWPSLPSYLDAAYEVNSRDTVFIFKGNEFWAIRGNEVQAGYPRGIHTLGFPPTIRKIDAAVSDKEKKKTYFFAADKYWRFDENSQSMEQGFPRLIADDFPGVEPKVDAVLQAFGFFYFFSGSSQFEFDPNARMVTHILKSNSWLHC
Chain of recombinant human MMP-7 (P09237 95-267): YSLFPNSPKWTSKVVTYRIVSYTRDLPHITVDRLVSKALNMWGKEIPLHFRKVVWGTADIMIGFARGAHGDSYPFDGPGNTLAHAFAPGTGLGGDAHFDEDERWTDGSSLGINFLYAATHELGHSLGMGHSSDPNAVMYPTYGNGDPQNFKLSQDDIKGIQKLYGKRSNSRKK
Chain of recombinant human MMP-2 (P08253 110-660): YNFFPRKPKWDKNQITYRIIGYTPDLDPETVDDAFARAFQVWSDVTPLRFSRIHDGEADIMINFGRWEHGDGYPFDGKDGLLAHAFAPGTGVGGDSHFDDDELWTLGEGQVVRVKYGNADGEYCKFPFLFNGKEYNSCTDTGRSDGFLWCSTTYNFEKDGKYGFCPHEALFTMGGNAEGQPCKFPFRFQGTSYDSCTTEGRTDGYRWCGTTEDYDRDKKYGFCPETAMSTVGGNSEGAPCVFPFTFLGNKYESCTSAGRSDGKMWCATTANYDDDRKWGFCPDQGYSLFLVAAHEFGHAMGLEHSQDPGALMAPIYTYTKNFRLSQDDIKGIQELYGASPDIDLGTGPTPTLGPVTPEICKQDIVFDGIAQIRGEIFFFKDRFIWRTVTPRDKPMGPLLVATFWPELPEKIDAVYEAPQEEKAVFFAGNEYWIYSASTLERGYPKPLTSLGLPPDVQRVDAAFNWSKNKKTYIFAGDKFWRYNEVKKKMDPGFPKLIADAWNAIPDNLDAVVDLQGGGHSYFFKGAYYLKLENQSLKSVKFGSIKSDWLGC
Chain of recombinant human MMP-9 (P14780 94-707): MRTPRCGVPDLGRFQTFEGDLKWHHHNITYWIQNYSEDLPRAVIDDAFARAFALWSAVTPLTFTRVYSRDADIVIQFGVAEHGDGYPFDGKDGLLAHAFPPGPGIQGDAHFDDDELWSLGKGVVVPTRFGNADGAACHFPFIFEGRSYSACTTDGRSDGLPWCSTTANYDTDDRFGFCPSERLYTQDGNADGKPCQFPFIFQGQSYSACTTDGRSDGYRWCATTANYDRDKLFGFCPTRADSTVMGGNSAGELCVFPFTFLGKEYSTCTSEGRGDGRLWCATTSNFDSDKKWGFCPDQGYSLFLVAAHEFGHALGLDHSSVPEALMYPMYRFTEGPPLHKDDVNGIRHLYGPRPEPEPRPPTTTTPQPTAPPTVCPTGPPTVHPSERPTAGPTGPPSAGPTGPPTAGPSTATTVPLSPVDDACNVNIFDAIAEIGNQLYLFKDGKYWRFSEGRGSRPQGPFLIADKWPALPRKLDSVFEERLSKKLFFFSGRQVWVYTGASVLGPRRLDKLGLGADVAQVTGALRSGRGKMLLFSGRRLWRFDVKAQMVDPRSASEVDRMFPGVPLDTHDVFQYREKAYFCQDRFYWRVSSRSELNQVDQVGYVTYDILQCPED
Chain of recombinant human MMP-12 catalytic domain (P39900 106-268): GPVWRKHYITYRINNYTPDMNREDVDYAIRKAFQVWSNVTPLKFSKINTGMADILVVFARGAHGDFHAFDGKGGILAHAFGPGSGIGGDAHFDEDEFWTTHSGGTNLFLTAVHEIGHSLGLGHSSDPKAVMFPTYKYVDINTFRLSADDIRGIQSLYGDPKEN

Cc1cc(C#Cc2ccc(Sc3ccoc3C3NC(=O)NC3=O)cc2)ccn1 (centres unmarked) [AC-1]
IC50 (recombinant human MMP-13): > 100 nM | IC50 (recombinant human MMP-8): > 100 nM | IC50 (recombinant human MMP-10): > 100 nM | IC50 [1, 2]: 10 to 100 nM | IC50 [1, 3]: 10 to 100 nM | IC50 (recombinant human MMP-7): > 100 nM | IC50 (recombinant human MMP-3): > 100 nM | IC50 (recombinant human MMP-1): > 100 nM | IC50 (recombinant human MMP-2): > 100 nM | IC50 (recombinant human MMP-9): > 100 nM | IC50 (recombinant human MMP-14): > 100 nM

Cc1cc(/C=C/c2ccc(Sc3ccoc3C3NC(=O)NC3=O)cc2)ccn1 (centres unmarked) [AC-2]
IC50 (recombinant human MMP-13): 10 to 100 nM | IC50 (recombinant human MMP-8): 10 to 100 nM | IC50 (recombinant human MMP-10): > 100 nM | IC50 [1, 2]: < 1 nM | IC50 [1, 3]: < 1 nM | IC50 (recombinant human MMP-7): > 100 nM | IC50 (recombinant human MMP-3): 10 to 100 nM | IC50 (recombinant human MMP-1): > 100 nM | IC50 (recombinant human MMP-2): 1 to 10 nM | IC50 (recombinant human MMP-9): 10 to 100 nM | IC50 (recombinant human MMP-14): > 100 nM

CCC1(c2occc2Sc2ccc(/C=C/c3ccnc(C)c3)cc2)NC(=O)NC1=O (centres unmarked) [AC-3]
IC50 (recombinant human MMP-13): 10 to 100 nM | IC50 (recombinant human MMP-8): 1 to 10 nM | IC50 (recombinant human MMP-10): 10 to 100 nM | IC50 [1, 2]: < 1 nM | IC50 [1, 3]: < 1 nM | IC50 (recombinant human MMP-7): > 100 nM | IC50 (recombinant human MMP-3): 10 to 100 nM | IC50 (recombinant human MMP-1): > 100 nM | IC50 (recombinant human MMP-2): 1 to 10 nM | IC50 (recombinant human MMP-9): 10 to 100 nM | IC50 (recombinant human MMP-14): > 100 nM

Cc1cc(C#Cc2ccc(Sc3ccncc3C3NC(=O)NC3=O)cc2)ccn1 (centres unmarked) [AC-4]
IC50 (recombinant human MMP-13): > 100 nM | IC50 (recombinant human MMP-8): > 100 nM | IC50 (recombinant human MMP-10): > 100 nM | IC50 [1, 2]: 1 to 10 nM | IC50 [1, 3]: 1 to 10 nM | IC50 (recombinant human MMP-7): > 100 nM | IC50 (recombinant human MMP-3): > 100 nM | IC50 (recombinant human MMP-1): > 100 nM | IC50 (recombinant human MMP-2): > 100 nM | IC50 (recombinant human MMP-9): > 100 nM | IC50 (recombinant human MMP-14): > 100 nM

Cc1cc(/C=C/c2ccc(Sc3ccncc3C3NC(=O)NC3=O)cc2)ccn1 (centres unmarked) [AC-5]
IC50 (recombinant human MMP-13): > 100 nM | IC50 (recombinant human MMP-8): > 100 nM | IC50 (recombinant human MMP-10): > 100 nM | IC50 [1, 2]: < 1 nM | IC50 [1, 3]: < 1 nM | IC50 (recombinant human MMP-7): > 100 nM | IC50 (recombinant human MMP-3): > 100 nM | IC50 (recombinant human MMP-1): > 100 nM | IC50 (recombinant human MMP-2): 10 to 100 nM | IC50 (recombinant human MMP-9): > 100 nM | IC50 (recombinant human MMP-14): > 100 nM

Cc1cc(/C=C/c2ccc(Oc3ccncc3C3NC(=O)NC3=O)cc2)ccn1 (centres unmarked) [AC-6]
IC50 (recombinant human MMP-13): > 100 nM | IC50 (recombinant human MMP-8): 10 to 100 nM | IC50 (recombinant human MMP-10): > 100 nM | IC50 [1, 2]: < 1 nM | IC50 [1, 3]: < 1 nM | IC50 (recombinant human MMP-7): > 100 nM | IC50 (recombinant human MMP-3): > 100 nM | IC50 (recombinant human MMP-1): > 100 nM | IC50 (recombinant human MMP-2): 10 to 100 nM | IC50 (recombinant human MMP-9): > 100 nM | IC50 (recombinant human MMP-14): > 100 nM

Cc1cc(C#Cc2ccc(Oc3ccncc3C3NC(=O)NC3=O)cc2)ccn1 (centres unmarked) [AC-7]
IC50 (recombinant human MMP-13): > 100 nM | IC50 (recombinant human MMP-8): > 100 nM | IC50 (recombinant human MMP-10): > 100 nM | IC50 [1, 2]: 1 to 10 nM | IC50 [1, 3]: 1 to 10 nM | IC50 (recombinant human MMP-7): > 100 nM | IC50 (recombinant human MMP-3): > 100 nM | IC50 (recombinant human MMP-1): > 100 nM | IC50 (recombinant human MMP-2): > 100 nM | IC50 (recombinant human MMP-9): > 100 nM | IC50 (recombinant human MMP-14): > 100 nM

CCC1(c2cnccc2Sc2ccc(/C=C/c3ccnc(C)c3)cc2)NC(=O)NC1=O (centres unmarked) [AC-8]
IC50 [1, 2]: < 1 nM

Cc1cc(C#Cc2ccc(Sc3ccsc3C3NC(=O)NC3=O)cc2)ccn1 (centres unmarked) [AC-9]
IC50 (recombinant human MMP-13): > 100 nM | IC50 (recombinant human MMP-8): 10 to 100 nM | IC50 (recombinant human MMP-10): > 100 nM | IC50 [1, 2]: < 1 nM | IC50 [1, 3]: < 1 nM | IC50 (recombinant human MMP-7): > 100 nM | IC50 (recombinant human MMP-3): > 100 nM | IC50 (recombinant human MMP-1): > 100 nM | IC50 (recombinant human MMP-2): 10 to 100 nM | IC50 (recombinant human MMP-9): > 100 nM | IC50 (recombinant human MMP-14): > 100 nM

Cc1cc(/C=C/c2ccc(Sc3ccsc3C3NC(=O)NC3=O)cc2)ccn1 (centres unmarked) [AC-10]
IC50 (recombinant human MMP-13): 1 to 10 nM | IC50 (recombinant human MMP-8): 1 to 10 nM | IC50 (recombinant human MMP-10): > 100 nM | IC50 [1, 2]: < 1 nM | IC50 [1, 3]: < 1 nM | IC50 (recombinant human MMP-7): > 100 nM | IC50 (recombinant human MMP-3): 10 to 100 nM | IC50 (recombinant human MMP-1): > 100 nM | IC50 (recombinant human MMP-2): 1 to 10 nM | IC50 (recombinant human MMP-9): 10 to 100 nM | IC50 (recombinant human MMP-14): > 100 nM

Cc1cc(C#Cc2ccc(Sc3cnn(C)c3C3NC(=O)NC3=O)cc2)ccn1 (centres unmarked) [AC-11]
IC50 (recombinant human MMP-13): > 100 nM | IC50 (recombinant human MMP-8): 10 to 100 nM | IC50 (recombinant human MMP-10): > 100 nM | IC50 [1, 2]: < 1 nM | IC50 [1, 3]: < 1 nM | IC50 (recombinant human MMP-7): > 100 nM | IC50 (recombinant human MMP-3): > 100 nM | IC50 (recombinant human MMP-1): > 100 nM | IC50 (recombinant human MMP-2): 10 to 100 nM | IC50 (recombinant human MMP-9): > 100 nM | IC50 (recombinant human MMP-14): > 100 nM

Cc1cc(/C=C/c2ccc(Sc3cnn(C)c3C3NC(=O)NC3=O)cc2)ccn1 (centres unmarked) [AC-12]
IC50 (recombinant human MMP-13): 10 to 100 nM | IC50 (recombinant human MMP-8): 10 to 100 nM | IC50 (recombinant human MMP-10): > 100 nM | IC50 [1, 2]: < 1 nM | IC50 [1, 3]: < 1 nM | IC50 (recombinant human MMP-7): > 100 nM | IC50 (recombinant human MMP-3): > 100 nM | IC50 (recombinant human MMP-1): > 100 nM | IC50 (recombinant human MMP-2): 1 to 10 nM | IC50 (recombinant human MMP-9): > 100 nM | IC50 (recombinant human MMP-14): > 100 nM
